Legend:
Type in all cases: cell-based
caspase-3 = test: Caspase-3 activity, colorimetric assay of cell lysates (Ac-DEVD-pNA); conditions: LNCaP; C-PC 250 μg/mL, topotecan 10 μM; 16 hours
Method: (§1) LNCaP cells were treated with different concentrations of the C-PC (250 μg mL−1) and topotecan (10 μM) for 16 hours. After the incubation time, cells were harvested, washed and resuspended in cell lysis buffer and kept on ice for 10 minutes. The cell lysate was centrifuged at 5000 rpm for 5 minutes, the supernatant was assayed for protein concentration and further diluted with the lysis buffer to adjust the protein concentration. Equal amounts of protein from each sample was added to 96-well plates and mixed with the 2×reaction buffer [100 mM HEPES (pH 7.4), 200 mM NaCl, 20 mM dithiotheritol, 2 mM EDTA, and 0.2% chaps] and 2 mM of the respective substrates acetyl-Leu-Glu-His-Asp-p-nitroaniline (Ac-LEHD-pNA) and acetyl-Asp-Glu-Val-Asp-p-nitroaniline (Ac-DEVD-pNA). For measuring the specific activity of caspase-9 and caspase-3, the respective inhibitors Ac-LEHD-CHO and Ac-DEVD-CHO were used. Release of the cleaved p-nitroanilide from the tetrapeptide substrates was measured using the 96-well microplate reader at 405 nm.

LNCaP cells [1] = test: Cell death / cell viability by trypan blue dye exclusion test; conditions: for inhibition of cell growth (percentage of live cells, FIG. 1): LNCaP, C-PC 250 and 500 μg/mL or topotecan 1 μM and 10 μM individually, 16 hours
Method: (§2) The LNCaP cells were grown as a complete monolayer in RPMI-1640 growth medium supplemented with 10% fetal bovine serum, 10,000 U/mL of penicillin, 10,000 μg/mL of streptomycin, 1% (+)-L-glutamine, and 1% amphotericin-B. The cells were grown at 37° C. under a humidified air/CO2 (19:1) atmosphere. All experiments were conducted using cells in logarithmic phase. In each well of a six-well plate, approximately 1×10^6 cells per well were grown for 24 hours.
(§3) To determine the cell viability, monolayer culture of LNCaP cells were treated with different concentrations of the C-PC (250 and 500 μg mL−1) and topotecan (1 μM and 10 μM) individually and in combination of C-PC (250 and 500 μg mL−1) with topotecan at 1 μM for 16 hours. After the incubation period, cell death was determined by using trypan blue dye exclusion test. To determine the levels of ROS generation, the cells cultured in 6-well plate were incubated with different concentrations of C-PC and topotecan as described above for 16 hours. At the end of incubation period, levels of ROS generated were measured using the NBT reduction assay.

caspase-9 = test: Caspase-9 activity, colorimetric assay of cell lysates (Ac-LEHD-pNA); conditions: LNCaP; C-PC 250 μg/mL, topotecan 10 μM; 16 hours
Method: as §1

LNCaP cells [2] = test: ROS generation by NBT reduction assay; conditions: 16 hours
Method: as §2, §3

Compound	caspase-3 activity compared to untreated control cells (FIG. 4) (caspase-3)	inhibition of cell growth (percentage of live cells, FIG. 1) (LNCaP cells [1])	caspase-9 activity compared to untreated control cells (FIG. 4) (caspase-9)	rate of ROS generation (FIG. 2) (LNCaP cells [2])	antiproliferative activity (LNCaP cells [1]; prostate cancer cell line LNCaP, preliminary work)
CC[C@@]1(O)C(=O)OCc2c1cc1n(c2=O)Cc2cc3c(CN(C)C)c(O)ccc3nc2-1 [topotecan, reference compound]	increased	significant inhibition of cell growth	increased	significant increase in the rate of ROS generation	–
phycocyanin	increased	significant inhibition of cell growth	increased	significant increase in the rate of ROS generation	had antiproliferative activity

— patent publication US20140314890A1, “COMBINATION ANTI-CANCER THERAPY” (THE FLORIDA INTERNATIONAL UNIVERSITY BOARD OF TRUSTEES, priority 2011, published 2014)
